# Reference: article PMC13338763, “Harnessing albumin as a carrier for the delivery of anti-HIV drugs to the lymphatic system” (Acta biomaterialia, 2025)
# Key:
# [1] = target: T1, fibrinogen (Homo sapiens, UniProt P02671+P02675+P02679); assay: Gel retardation study with fibrinogen; assay type: binding
# T1 sequence (P02671 20-629 limits assumed): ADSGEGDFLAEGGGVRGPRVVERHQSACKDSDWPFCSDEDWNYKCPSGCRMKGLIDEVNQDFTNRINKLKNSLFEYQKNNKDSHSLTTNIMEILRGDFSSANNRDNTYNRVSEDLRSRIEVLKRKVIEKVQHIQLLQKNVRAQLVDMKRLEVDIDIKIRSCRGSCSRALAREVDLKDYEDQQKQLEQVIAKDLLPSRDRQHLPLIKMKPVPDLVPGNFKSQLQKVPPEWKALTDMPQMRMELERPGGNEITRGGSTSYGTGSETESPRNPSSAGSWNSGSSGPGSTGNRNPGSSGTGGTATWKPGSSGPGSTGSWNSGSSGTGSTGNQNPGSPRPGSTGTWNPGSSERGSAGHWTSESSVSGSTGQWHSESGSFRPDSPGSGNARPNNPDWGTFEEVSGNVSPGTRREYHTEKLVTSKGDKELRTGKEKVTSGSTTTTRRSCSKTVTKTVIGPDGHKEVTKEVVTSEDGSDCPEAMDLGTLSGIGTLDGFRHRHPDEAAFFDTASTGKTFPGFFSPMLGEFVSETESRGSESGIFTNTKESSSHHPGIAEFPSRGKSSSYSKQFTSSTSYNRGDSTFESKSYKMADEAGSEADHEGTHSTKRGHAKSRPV
# T1 sequence (P02675 31-491): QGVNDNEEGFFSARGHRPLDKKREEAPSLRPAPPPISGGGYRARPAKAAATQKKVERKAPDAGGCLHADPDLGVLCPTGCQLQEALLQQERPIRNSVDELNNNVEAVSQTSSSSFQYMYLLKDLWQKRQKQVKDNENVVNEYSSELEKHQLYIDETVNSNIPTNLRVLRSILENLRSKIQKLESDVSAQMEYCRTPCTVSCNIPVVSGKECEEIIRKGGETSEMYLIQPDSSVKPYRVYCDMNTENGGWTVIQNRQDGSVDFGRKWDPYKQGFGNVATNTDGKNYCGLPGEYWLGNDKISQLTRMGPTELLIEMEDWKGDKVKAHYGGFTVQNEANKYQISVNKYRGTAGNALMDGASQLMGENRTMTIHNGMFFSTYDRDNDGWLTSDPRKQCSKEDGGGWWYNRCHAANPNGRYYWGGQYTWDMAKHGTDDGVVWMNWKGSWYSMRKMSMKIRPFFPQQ
# T1 sequence (P02679 27-453): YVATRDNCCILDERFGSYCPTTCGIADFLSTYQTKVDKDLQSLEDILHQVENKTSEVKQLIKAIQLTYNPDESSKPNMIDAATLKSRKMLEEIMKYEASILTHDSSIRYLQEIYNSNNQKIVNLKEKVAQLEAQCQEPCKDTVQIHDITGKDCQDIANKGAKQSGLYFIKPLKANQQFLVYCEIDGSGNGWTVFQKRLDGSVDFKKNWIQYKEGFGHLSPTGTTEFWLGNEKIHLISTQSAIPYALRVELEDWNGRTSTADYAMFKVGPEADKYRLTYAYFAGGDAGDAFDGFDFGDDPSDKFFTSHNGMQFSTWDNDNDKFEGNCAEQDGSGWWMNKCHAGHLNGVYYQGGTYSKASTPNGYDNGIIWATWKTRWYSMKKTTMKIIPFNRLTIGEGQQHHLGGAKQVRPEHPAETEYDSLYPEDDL
# Experimental: (§1) Twenty (20) μg EB, hEB, hEB-platin, or hEB-DTG were mixed with or without various amounts of BSA, globulin, fibrinogen or FBS in 200 μL saline water, then 40 μL of the mixed solution were loaded to 1.5 % agarose gel and run under 120 V for 30 min.
# [2] = target: BSA (Bos taurus, UniProt P02769); assay: Gel retardation study with BSA; assay type: binding, bovine; settings: BSA, weight ratio
# BSA, sequence (P02769 25-607): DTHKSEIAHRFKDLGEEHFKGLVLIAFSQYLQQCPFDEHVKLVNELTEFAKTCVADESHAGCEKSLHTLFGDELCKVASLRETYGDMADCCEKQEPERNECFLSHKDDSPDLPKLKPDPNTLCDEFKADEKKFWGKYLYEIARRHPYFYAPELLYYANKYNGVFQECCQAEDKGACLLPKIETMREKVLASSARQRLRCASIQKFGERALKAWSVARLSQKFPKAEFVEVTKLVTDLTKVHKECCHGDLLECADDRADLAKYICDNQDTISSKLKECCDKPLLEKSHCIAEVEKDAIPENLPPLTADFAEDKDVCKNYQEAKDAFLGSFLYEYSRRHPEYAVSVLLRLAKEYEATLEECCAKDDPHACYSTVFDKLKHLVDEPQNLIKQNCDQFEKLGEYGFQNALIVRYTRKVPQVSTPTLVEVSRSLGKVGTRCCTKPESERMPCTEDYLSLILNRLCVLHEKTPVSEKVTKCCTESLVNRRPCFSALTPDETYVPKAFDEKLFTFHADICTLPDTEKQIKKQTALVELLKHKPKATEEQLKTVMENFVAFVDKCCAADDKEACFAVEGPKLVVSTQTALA
# Experimental: as §1
# [3] = test system: HEK293T cells; assay: Cellular uptake study in vitro (flow cytometry); assay type: cell-based; settings: in words
# Experimental: HEK293T or HUVEC cells were seeded to 6-well plates. After overnight incubation, the culture medium was replaced by fresh medium containing 10 μM EB and 2, 5, or 20 mg/mL BSA for incubation of 0.5, 1 or 3 h at 37 °C. Later, cells were washed with cold PBS and fixed with PBS containing 4 % (w/v) formaldehyde.
# Cellular uptake of different treatments was quantified by flow cytometry. Fluorescence was examined at an excitation wavelength of 532 nm and an emission wavelength of 660 nm. 10 × 10^4 events were collected for each sample.
# [4] = test system: globulin; assay: Gel retardation study with globulin; assay type: binding
# Experimental: as §1
# [5] = test system: albumin; set-up: method as in PMID 27682195; settings: cited from earlier work
# [6] = test system: HUVEC monolayer; assay: Transwell study: transport across a HUVEC monolayer, flow cytometry of HEK293T cells in lower chamber; assay type: cell-based; settings: 8 h; for EB transport across a HUVEC monolayer: EB-positive cells in the lower chamber: Fig. 1J
# Experimental: HEK293T were seeded to 6-well plates as lower chamber and HUVEC were seeded to Corning (NY, USA) 6-well plate inserts (0.4 μm pore size) in another plate as upper chamber, respectively. After incubation and the cell layer on the upper chamber became intact, the culture medium in the inserts was replaced by fresh medium containing 0, 5 or 20 μg/mL filipin and 0 or 10 μg/mL LPS for overnight incubation. Next, the culture medium in the inserts was replaced with fresh medium containing 10 μM EB, hEB or hEB-DTG and 2 mg/mL BSA, then the inserts were moved to the wells cultured with HEK293T cells for incubation of 8 h at 37 °C. After that, HEK293T cells in the lower chambers were washed with cold PBS.
# EB signals in HEK293T cells were quantified by flow cytometry. Fluorescence was examined at an excitation wavelength of 532 nm and an emission wavelength of 660 nm. 10 × 10^4 events were collected for each sample.
# [7] = Distribution in LN tissue and cells in LNs after i.v. injection (fluorescence microscopy, flow cytometry); assay type: in vivo
# Experimental: Five (5) μM/kg EB, hEB or hEB-DTG were i.v. injected into mice pretreated intraperitoneally with or without 2.5 mg/kg LPS for 24 h. After 24 h, LNs from different sites were collected and their signals of EB were checked under fluorescent microscopy. To evaluate the EB signals in various types of cells, LNs were disrupted mechanically using scissors, digested with a mixture of deoxyribonuclease I (0.3 mg/mL, Sigma-Aldrich) and TL Liberase (0.25 mg/mL, Roche, IN, USA) in serum-free RPMI-1640 at 37 °C for 30 min, and dispersed through a 40 μm cell strainer (BD Biosciences, CA, USA). After red blood cell lysis, live/dead cell discrimination was performed using a Zombie NIR Fixable Viability Kit (BioLegend, CA, USA, dilution: 1/1000) at 4 °C for 30 min in DPBS. Surface staining was performed at 4 °C for 30 min in FACS staining buffer (1 × phosphate-buffered saline/5 % FBS/0.5 % sodium azide) containing designated antibody cocktails (PerCP anti-mouse CD45 antibody, Brilliant Violet 785 anti-mouse CD4 antibody, FITC anti-mouse CD8 antibody, APC anti-mouse CD11b antibody, APC/Cyanine7 anti-mouse F4/80 antibody, Pacific Blue anti-mouse CD19 antibody and AF647 anti-mouse CD27 antibody; dilution: 1/200 for all antibodies). Flow cytometry was performed with LSRII (BD Biosciences) and Aurora (Cytek Biosciences, CA, USA) instruments and analyzed by FlowJo (BD Biosciences). The EB signals in each type of cell were quantified as mentioned above.
compound,measurement,setting,value
"Cc1cc(-c2ccc(/N=N/c3ccc4c(S(=O)(=O)O)cc(S(=O)(=O)O)c(N)c4c3O)c(C)c2)ccc1/N=N/c1ccc2c(S(=O)(=O)O)cc(S(=O)(=O)O)c(N)c2c1O [EB, Evans Blue]",binding to fibrinogen,[1],no detectable binding
same,albumin/EB weight ratio at which the majority of EB molecules were bound to albumin,[2],≥ 25
same,cellular uptake,[3],efficient and albumin-dependent
same,binding to globulin,[4],no detectable binding
same,EB molecules bound per albumin molecule,[5],up to 14
same,EB transport across a HUVEC monolayer: EB-positive cells in the lower chamber,[6]; CT (no pretreatment),98.8%
same,EB transport across a HUVEC monolayer: EB-positive cells in the lower chamber,[6]; HUVEC pretreated with LPS + filipin,9.66%
same,EB transport across a HUVEC monolayer: EB-positive cells in the lower chamber,[6]; HUVEC pretreated with LPS,98.7%
same,EB transport across a HUVEC monolayer: EB-positive cells in the lower chamber,[6]; HUVEC pretreated with filipin,5.04%
same,transport across endothelial cell monolayer,"[6]; albumin-bound, in words",strong fluorescent signals were detected in the lower chamber
same,fluorescence signal in LNs,"[7]; 24 h post i.v. injection, in words",Robust EB fluorescence was detected in all LNs examined
same,EB signals in LNs of LPS-treated vs naive mice,"[7]; 24 h post-injection, LPS 2.5 mg/kg i.p.",not significantly different
same,uptake by immune cell populations in LNs,"[7]; flow cytometry, in words",significant EB signal across multiple cell populations
